Results as given in ChEMBL document CHEMBL4303087, “Broad anti-coronaviral activity of FDA approved drugs against SARS-CoV-2 in vitro and SARS-CoV in vivo” (2020).
Where “and” joins values, the source holds several entries; their conditions need not be identical. Equal values may be shown once. Where a name gives a salt, the structure may show the parent alone. Calls of active or inactive are those of the source. No cut-off for these calls is given here.

What was measured:
SARS-CoV-2 [1] = test: microbe, parasite or virus in culture; assay type: functional, organism-based, Chlorocebus sabaeus, Vero C1008
SARS-CoV-2 [2] = test: microbe, parasite or virus in culture; assay type: functional, organism-based, Chlorocebus sabaeus, Vero C1008; remark: listed apart in the source
Vero C1008 = settings: chlorocebus sabaeus, vero c1008, 72 h
in vitro [3] = settings: monkey, Vero E6 cells, Selectivity index
in vitro [4] = settings: monkey, Vero E6 cells, Selectivity index; remark: listed apart in the source
SARS-CoV = test: Reduction of SARS spike protein-mediated cell fusion using BlaM pseudovirus assay system in BSC1 cells; assay type: functional, Chlorocebus aethiops, BSC-1
SARS-CoV-2 [5] = test: Reduction of viral mRNA (RdRp and N) in SARS-CoV-2 infected Vero E6 cells (at MOI 0.1) after 24 hrs; assay type: functional, organism-based; settings: Chlorocebus sabaeus; Vero C1008
SARS-CoV-2 [6] = test: Reduction of SARS-CoV-2 infection by time of addition assay, with 50uM hydroxychloroquine administered at -2hrs, 0 hrs and 2hrs post-infection; assay type: functional, organism-based; settings: Chlorocebus sabaeus, Vero C1008
[7] = Severe acute respiratory syndrome coronavirus 2, Vero C1008, 72 h

SMILES	IC50 (SARS-CoV-2 [1]; [7])	IC50 (SARS-CoV-2 [2]; [7])	CC50 (Vero C1008)	selectivity ratio (in vitro [3])	selectivity ratio (in vitro [4])	other results
CN(C)CCOc1ccc(/C(=C(/CCCl)c2ccccc2)c2ccccc2)cc1 [TOREMIFENE CITRATE]	4.77 µM	11.3 µM	20.5 µM	4.3	1.81	–
O=C1NCN(c2ccccc2)C12CCN(CCCC(c1ccc(F)cc1)c1ccc(F)cc1)CC2	3.16 µM	5.32 µM	30.3 µM	9.61	5.71	–
CCSc1ccc2c(c1)N(CCCN1CCN(C)CC1)c1ccccc1S2 [THIETHYLPERAZINE MALEATE]	7.09 µM	8.02 µM	18.4 µM	2.59	2.29	–
CC(C)N1CCN(c2ccc(OCC3COC(Cn4cncn4)(c4ccc(Cl)cc4Cl)O3)cc2)CC1 (stereo not drawn) [TERCONAZOLE]	11.9 µM	16.1 µM	41.5 µM	3.48	2.57	–
CC/C(=C(\c1ccccc1)c1ccc(OCCN(C)C)cc1)c1ccccc1 [TAMOXIFEN CITRATE]	–	–	38 µM	–	–	–
CC[C@H]1CN2CCc3cc(OC)c(OC)cc3[C@@H]2C[C@@H]1C[C@H]1NCCc2cc(OC)c(OC)cc21 [EMETINE DIHYDROCHLORIDE HYDRATE]	–	–	< 0.39 µM	–	–	–
CCN(CC)Cc1cc(Nc2ccnc3cc(Cl)ccc23)ccc1O [AMODIAQUINE HYDROCHLORIDE]	2.59 µM	4.94 µM	–	13.3	6.97	IC50 (SARS-CoV-2 [1]; vero c1008): 2.36 µM; IC50 (SARS-CoV-2 [2]; vero c1008): 5.64 µM; CC50 (Vero C1008; 72 h): 34.4 µM and > 38.6 µM
Cc1ccc(NC(=O)c2ccc(CN3CCN(C)CC3)cc2)cc1Nc1nccc(-c2cccnc2)n1 [IMATINIB MESYLATE]	–	–	> 30.9 µM	–	–	–
CCN(CC)CCOc1ccc(C(O)(Cc2ccc(Cl)cc2)c2ccc(C)cc2)cc1 (stereo not drawn) [TRIPARANOL]	4.68 µM	6.41 µM	21.2 µM	4.53	3.31	–
Nc1ccn([C@@H]2O[C@H](CO)[C@@H](O)C2(F)F)c(=O)n1 [GEMCITABINE HYDROCHLORIDE]	–	–	23.2 µM	–	–	–
OC(c1cc(C(F)(F)F)nc2c(C(F)(F)F)cccc12)C1CCCCN1 (stereo not drawn) [MEFLOQUINE HYDROCHLORIDE]	7.11 µM	8.06 µM	18.5 µM	2.61	2.3	–
CN(C)CCCN1c2ccccc2Sc2ccc(Cl)cc21.Cl [CHLORPROMAZINE HYDROCHLORIDE]	3.14 µM	4.03 µM	11.9 µM	–	–	Inhibition (SARS-CoV): >90%
CCN(CCO)CCCC(C)Nc1ccnc2cc(Cl)ccc12 (stereo not drawn) [HYDROXYCHLOROQUINE SULFATE]	9.21 µM	11.2 µM	> 50 µM	> 5.43	> 4.48	Activity (SARS-CoV-2 [5]): Active; Activity (SARS-CoV-2 [6]; time 0.0 hr): Active; Activity (SARS-CoV-2 [6]; time 2.0 hr): Active; Activity (SARS-CoV-2 [6]; time -2.0 hr): Active
CC(CN1c2ccccc2Sc2ccccc21)N(C)C (stereo not drawn) [PROMETHAZINE HYDROCHLORIDE]	9.21 µM	10.4 µM	> 42.6 µM	> 4.62	> 4.08	–
CCN(CC)CCCC(C)Nc1ccnc2cc(Cl)ccc12.O=P(O)(O)O.O=P(O)(O)O (stereo not drawn) [CHLOROQUINE PHOSPHATE]	42 µM	46.8 µM	–	–	–	Activity (SARS-CoV-2 [5]): Active; Inhibition (SARS-CoV): >90%
